# According to patent publication US20260347347A1, “2-AZA-AND 2-OXABICYCLO[2.1.1]HEXANE DERIVATIVES AS FACTOR XIIA ENZYME INHIBITORS” (KALVISTA PHARMACEUTICALS LIMITED, priority 2022, published 2026):
# Biological target: T1, Human Factor XIIa (Homo sapiens, UniProt P00748)
# T1 construct: purchased Enzyme Research Laboratories
# T1 sequence (P00748 373-615 limits assumed): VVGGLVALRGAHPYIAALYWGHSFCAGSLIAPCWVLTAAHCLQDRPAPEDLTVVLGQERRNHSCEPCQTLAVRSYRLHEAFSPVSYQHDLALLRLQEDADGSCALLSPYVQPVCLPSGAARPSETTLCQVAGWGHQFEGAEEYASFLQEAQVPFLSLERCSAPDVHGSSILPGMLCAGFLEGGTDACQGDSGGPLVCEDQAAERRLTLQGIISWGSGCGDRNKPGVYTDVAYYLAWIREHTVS
# T1 sequence (P00748 20-372 partner limits assumed): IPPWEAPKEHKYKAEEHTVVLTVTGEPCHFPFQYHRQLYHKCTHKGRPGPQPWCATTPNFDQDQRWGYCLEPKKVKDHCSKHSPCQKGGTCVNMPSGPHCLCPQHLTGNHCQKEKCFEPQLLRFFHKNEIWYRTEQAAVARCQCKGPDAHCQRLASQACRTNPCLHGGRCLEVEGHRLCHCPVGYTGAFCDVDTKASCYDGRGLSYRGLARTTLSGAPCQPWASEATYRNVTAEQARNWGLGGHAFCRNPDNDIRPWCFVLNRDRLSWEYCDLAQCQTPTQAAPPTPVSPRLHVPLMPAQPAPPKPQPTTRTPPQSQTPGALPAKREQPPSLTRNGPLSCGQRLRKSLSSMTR
# Assay: Determination of FXIIa inhibition (in vitro IC50 assay, fluorogenic substrate H-DPro-Phe-Arg-AFC)
# Type: biochemical
# Settings: human Factor XIIa; fluorogenic substrate H-DPro-Phe-Arg-AFC at Km concentration; 5 min, 25 °C; class symbols; read-out: Human FXIIa IC50
# Procedure, shortened: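 Human FXIIa incubated at 25 °C with compound and H-DPro-Phe-Arg-AFC at its Km concentration. Linear fluorescence increase monitored over 5 min, expressed as % of uninhibited activity; IC50 is concentration giving 50% inhibition.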
row,SMILES,IC50 [nM]
1,"Cn1ccc(OCC23CN(C(=O)NC4C(C)(C)C4(C)C)C(CNc4cccc5c(N)nccc45)(C2)C3)cc1=O [Example 80, 1-(((1-aminoisoquinolin-5-yl)amino)methyl)-4-(((1-methyl-2-oxo-1,2-dihydropyridin-4-yl)oxy)methyl)-N-(2,2,3,3-tetramethylcyclopropyl)-2-azabicyclo [2.1.1]hexane-2-carboxamide]",10 to 100
2,"Cn1ccc(OCC23CN(C(=O)NCCC4CCC4)C(CNc4cccc5c(N)nccc45)(C2)C3)cc1=O [Example 81, 1-(((1-aminoisoquinolin-5-yl)amino)methyl)-N-(2-cyclobutylethyl)-4-(((1-methyl-2-oxo-1,2-dihydropyridin-4-yl)oxy)methyl)-2-azabicyclo[2.1.1]hexane-2-carboxamide]",10 to 100
3,"Cn1ccc(OCC23CN(C(=O)NCCCOCc4ccccc4)C(CNc4cccc5c(N)nccc45)(C2)C3)cc1=O [Example 82, 1-(((1-aminoisoquinolin-5-yl)amino)methyl)-N-(3-(benzyloxy)propyl)-4-(((1-methyl-2-oxo-1,2-dihydropyridin-4-yl)oxy)methyl)-2-azabicyclo[2.1.1]hexane-2-carboxamide]",10 to 100
4,"Cc1cc(OCC23CN(C(=O)N4CCC5(CCOCC5)C4)C(CNc4cccc5c(N)nccc45)(C2)C3)cc(=O)n1C [Example 83, 4-((1-(((1-aminoisoquinolin-5-yl)amino)methyl)-2-(8-oxa-2-azaspiro[4.5]decane-2-carbonyl)-2-azabicyclo[2.1.1]hexan-4-yl)methoxy)-1,6-dimethylpyridin-2(1H)-one]",10 to 100
5,"Cc1cc(OCC23CN(C(=O)N4CCCC5(CC5)C4)C(CNc4cccc5c(N)nccc45)(C2)C3)cc(=O)n1C [Example 84, 4-((1-(((1-aminoisoquinolin-5-yl)amino)methyl)-2-(5-azaspiro[2.5]octane-5-carbonyl)-2-azabicyclo[2.1.1]hexan-4-yl)methoxy)-1,6-dimethylpyridin-2(1H)-one]",10 to 100
6,"Cc1cc(OCC23CN(C(=O)N4CCC5(CCCC5)C4)C(CNc4cccc5c(N)nccc45)(C2)C3)cc(=O)n1C [Example 85, 4-((1-(((1-aminoisoquinolin-5-yl)amino)methyl)-2-(2-azaspiro[4.4]nonane-2-carbonyl)-2-azabicyclo[2.1.1]hexan-4-yl)methoxy)-1,6-dimethylpyridin-2(1H)-one]",10 to 100
7,"COc1cccc(C2CCN(C(=O)N3CC4(COc5cc(C)n(C)c(=O)c5)CC3(CNc3cccc5c(N)nccc35)C4)C2)c1 (stereo not drawn) [Example 86, 4-((1-(((1-aminoisoquinolin-5-yl)amino)methyl)-2-(3-(3-methoxyphenyl)pyrrolidine-1-carbonyl)-2-azabicyclo[2.1.1]hexan-4-yl)methoxy)-1,6-dimethylpyridin-2(1H)-one]",10 to 100
8,"Cc1cc(OCC23CN(C(=O)N4CCCC5(C4)CC5(F)F)C(CNc4cccc5c(N)nccc45)(C2)C3)cc(=O)n1C (stereo not drawn) [Example 87, 4-((1-(((1-aminoisoquinolin-5-yl)amino)methyl)-2-(1,1-difluoro-5-azaspiro[2.5]octane-5-carbonyl)-2-azabicyclo[2.1.1]hexan-4-yl)methoxy)-1,6-dimethylpyridin-2(1H)-one]",10 to 100
9,"Cn1ccc(OCC23CN(C(=O)N[C@@H](c4ccccc4)C(F)(F)F)C(CNc4cccc5c(N)nccc45)(C2)C3)cc1=O [Example 88, (S)-1-(((1-aminoisoquinolin-5-yl)amino)methyl)-4-(((1-methyl-2-oxo-1,2-dihydropyridin-4-yl)oxy)methyl)-N-(2,2,2-trifluoro-1-phenylethyl)-2-azabicyclo [2.1.1]hexane-2-carboxamide]",10 to 100
10,"Cc1cc(OCC23CN(C(=O)N4CCC5(C4)CC5(F)F)C(CNc4cccc5c(N)nccc45)(C2)C3)cc(=O)n1C (stereo not drawn) [Example 89, 4-((1-(((1-aminoisoquinolin-5-yl)amino)methyl)-2-(1,1-difluoro-5-azaspiro[2.4]heptane-5-carbonyl)-2-azabicyclo[2.1.1]hexan-4-yl)methoxy)-1,6-dimethylpyridin-2(1H)-one]",10 to 100
11,"Cc1cc(OCC23CN(C(=O)N(C)C4COc5ccccc54)C(CNc4cccc5c(N)nccc45)(C2)C3)cc(=O)n1C (stereo not drawn) [Example 90, 1-(((1-Aminoisoquinolin-5-yl)amino)methyl)-N-(2,3-dihydrobenzofuran-3-yl)-4-(((1,6-dimethyl-2-oxo-1,2-dihydropyridin-4-yl)oxy)methyl)-N-methyl-2-azabicyclo[2.1.1]hexane-2-carboxamide]",1 to 10
12,"Cn1ccc(OCC23CN(C(=S)Nc4ccccc4)C(CNc4cccc5c(N)nccc45)(C2)C3)cc1=O [Example 91, 1-(((1-Aminoisoquinolin-5-yl)amino)methyl)-4-(((1-methyl-2-oxo-1,2-dihydropyridin-4-yl)oxy)methyl)-N-phenyl-2-azabicyclo[2.1.1]hexane-2-carbothioamide]",10 to 100
13,"Cc1cc(OCC23CN(C(=O)Nc4ccc5c(c4)OC(F)(F)O5)C(CNc4cccc5c(N)nccc45)(C2)C3)cc(=O)n1C [Example 92, 1-(((1-aminoisoquinolin-5-yl)amino)methyl)-N-(2,2-difluorobenzo[d][1,3]dioxol-5-yl)-4-(((1,6-dimethyl-2-oxo-1,2-dihydropyridin-4-yl)oxy)methyl)-2-azabicyclo[2.1.1]hexane-2-carboxamide]",10 to 100
14,"Cn1ccc(OCC23CN(c4ncc(C5CC5)cn4)C(CNc4cccc5c(N)nccc45)(C2)C3)cc1=O [Example 93, 4-((1-(((1-aminoisoquinolin-5-yl)amino)methyl)-2-(5-cyclopropylpyrimidin-2-yl)-2-azabicyclo[2.1.1]hexan-4-yl)methoxy)-1-methylpyridin-2(1H)-one]",10 to 100
15,"Cc1cc(OCC23CN(c4ccc(C5CC5)nc4)C(CNc4cccc5c(N)nccc45)(C2)C3)cc(=O)n1C [Example 94, 4-((1-(((1-aminoisoquinolin-5-yl)amino)methyl)-2-(6-cyclopropylpyridin-3-yl)-2-azabicyclo[2.1.1]hexan-4-yl)methoxy)-1,6-dimethylpyridin-2(1H)-one]",10 to 100
16,"Cc1cc(OCC23CN(c4ccc(C5CC5)nn4)C(CNc4cccc5c(N)nccc45)(C2)C3)cc(=O)n1C [Example 95, 4-((1-(((1-Aminoisoquinolin-5-yl)amino)methyl)-2-(6-cyclopropylpyridazin-3-yl)-2-azabicyclo[2.1.1]hexan-4-yl)methoxy)-1,6-dimethylpyridin-2(1H)-one]",10 to 100
17,"Cc1cc(OCC23CN(C4=NCCO4)C(CNc4cccc5c(N)nccc45)(C2)C3)cc(=O)n1C [Example 97, 4-((1-(((1-Aminoisoquinolin-5-yl)amino)methyl)-2-(4,5-dihydrooxazol-2-yl)-2-azabicyclo[2.1.1]hexan-4-yl)methoxy)-1,6-dimethylpyridin-2(1H)-one]",10 to 100
18,"Cn1ccc(OCC23CC(CNc4cccc5c(N)nccc45)(CN2C(=O)CCC2CCCCC2)C3)cc1=O [Example 102, 4-((4-(((1-Aminoisoquinolin-5-yl)amino)methyl)-2-(3-cyclohexylpropanoyl)-2-azabicyclo[2.1.1]hexan-1-yl)methoxy)-1-methylpyridin-2(1H)-one]",100 to 300
19,"Cn1ccc(OCC23CC(CNc4cccc5c(N)nccc45)(CN2C(=O)CC2CCCCC2)C3)cc1=O [Example 103, 4-((4-(((1-aminoisoquinolin-5-yl)amino)methyl)-2-(2-cyclohexylacetyl)-2-azabicyclo[2.1.1]hexan-1-yl)methoxy)-1-methylpyridin-2(1H)-one]",300 to 1000
20,"Cc1cc(OCC23CN(C(=O)Nc4ccc5c(c4)CCCO5)C(CN(C)c4cccc5c(N)nccc45)(C2)C3)cc(=O)n1C [Example 104, 1-(((1-aminoisoquinolin-5-yl)(methyl)amino)methyl)-N-(chroman-6-yl)-4-(((1,6-dimethyl-2-oxo-1,2-dihydropyridin-4-yl)oxy)methyl)-2-azabicyclo[2.1.1]hexane-2-carboxamide]",10 to 100
21,"Cc1cc(OCC23CN(c4nnc(C5CC5)o4)C(CNc4cccc5c(N)nccc45)(C2)C3)cc(=O)n1C [Example 105, 4-((1-(((1-aminoisoquinolin-5-yl)amino)methyl)-2-(5-cyclopropyl-1,3,4-oxadiazol-2-yl)-2-azabicyclo[2.1.1]hexan-4-yl)methoxy)-1,6-dimethylpyridin-2(1H)-one]",1 to 10
